Key:
MATIN [1] = assay: Pre-emergence herbicidal action against MATIN; type: in vivo, Matricaria inodora
How it was run: (§1)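 Seeds sown in sandy loam, soil-covered; compound sprayed on soil surface pre-emergence. Application: WP/EC, 600–800 l/ha, 0.2% wetting agent. Readout: visual % damage at 3 weeks.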

VIOTR [2] = assay: Pre-emergence herbicidal action against VIOTR; type: in vivo, Viola tricolor
How it was run: as §1

ABUTH [3] = assay: Pre-emergence herbicidal action against ABUTH; type: in vivo, Abutilon theophrasti; conditions: for Pre-emergence action against ABUTH (herbicidal activity): 80 g/ha, scored visually after 3 weeks vs untreated controls (100% = plants have died, 0% = like control plants); for Pre-emergence action against ABUTH (herbicidal activity in percent): dosage 20 g/ha, scored visually after 3 weeks vs untreated controls, 100% = plants have died, 0% = like control plants
How it was run: as §1

STEME [4] = assay: Post-emergence herbicidal action against STEME; type: in vivo, Stellaria media
Procedure: Seeds of monocotyledonous and dicotyledonous weed and crop plants are laid out in sandy loam soil in wood-fiber pots, covered with soil and cultivated in a greenhouse under good growth conditions. 2 to 3 weeks after sowing, the test plants are treated at the one-leaf stage. The compounds of the invention, formulated in the form of wettable powders (WP) or as emulsion concentrates (EC), are then sprayed onto the green parts of the plants in the form of an aqueous suspension or emulsion at a water application rate equivalent to 600 to 800 l/ha, with addition of 0.2% wetting agent. After the test plants have been left to stand in the greenhouse under optimal growth conditions for about 3 weeks, the action of the preparations is assessed visually in comparison to untreated controls (herbicidal action in percent (%): 100% activity=the plants have died, 0% activity=like control plants). […] The tables below illustrate, in an illustrative manner, the post-emergence herbicidal action of the compounds of the invention, the herbicidal activity being stated in percent.

AVEFA [5] = assay: Pre-emergence herbicidal action against AVEFA; type: in vivo, Avena fatua; conditions: 80 g/ha, pre-emergence
How it was run: as §1

AMARE [6] = assay: Post-emergence herbicidal action against AMARE; type: in vivo, Amaranthus retroflexus; conditions: 20 g/ha, visual assessment about 3 weeks after treatment, 100% = plants have died, 0% = like control plants
How it was run: (§2)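 Sandy loam, greenhouse; treatment 2–3 weeks after sowing, one-leaf stage. Aqueous suspension or emulsion from WP/EC sprayed on foliage (600–800 l/ha, 0.2% wetting agent). Readout: visual % action, ~3 weeks.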

VIOTR [7] = assay: Post-emergence herbicidal action against VIOTR; type: in vivo, Viola tricolor
How it was run: as §2

AMARE [8] = assay: Pre-emergence herbicidal action against AMARE; type: in vivo, Amaranthus retroflexus
How it was run: as §1

STEME [9] = assay: Pre-emergence herbicidal action against STEME; type: in vivo, Stellaria media
How it was run: as §1

SETVI [10] = assay: Post-emergence herbicidal action against SETVI; type: in vivo, Setaria viridis
How it was run: as §2

VERPE [11] = assay: Pre-emergence herbicidal action against VERPE; type: in vivo, Veronica persica; conditions: dosage 80 g/ha
How it was run: as §1

VERPE [12] = assay: Post-emergence herbicidal action against VERPE; type: in vivo, Veronica persica; conditions: 20 g/ha
How it was run: as §2

ECHCG [13] = assay: Pre-emergence herbicidal action against ECHCG; type: in vivo, Echinochloa crus-galli; conditions: 80 g/ha
How it was run: as §1

SETVI [14] = assay: Pre-emergence herbicidal action against SETVI; type: in vivo, Setaria viridis; conditions: dosage 80 g/ha
How it was run: as §1

ABUTH [15] = assay: Post-emergence herbicidal action against ABUTH; type: in vivo, Abutilon theophrasti; conditions: visual assessment about 3 weeks after treatment vs untreated controls
How it was run: as §2

ALOMY = assay: Post-emergence herbicidal action against ALOMY; type: in vivo, Alopecurus myosuroides; conditions: dosage 20 g/ha, visual assessment about 3 weeks after treatment vs untreated controls
How it was run: as §2

DIGSA [16] = assay: Post-emergence herbicidal action against DIGSA; type: in vivo, Digitaria sanguinalis; conditions: for Post-emergence action against DIGSA in %: 5 g/ha; for Post-emergence action against DIGSA: 20 g/ha
How it was run: as §2

PHBPU = assay: Post-emergence herbicidal action against PHBPU; type: in vivo, Pharbitis purpurea
How it was run: as §2

MATIN [17] = assay: Post-emergence herbicidal action against MATIN; type: in vivo, Matricaria inodora; conditions: dosage 20 g/ha
How it was run: as §2

DIGSA [18] = assay: Pre-emergence herbicidal action against DIGSA; type: in vivo, Digitaria sanguinalis
How it was run: as §1

ECHCG [19] = assay: Post-emergence herbicidal action against ECHCG; type: in vivo, Echinochloa crus-galli
How it was run: as §2

AVEFA [20] = assay: Post-emergence herbicidal action against AVEFA; type: in vivo, Avena fatua; conditions: 20 g/ha, visual assessment about 3 weeks after treatment, 100% = plants have died, 0% = like control plants
How it was run: as §2

[21] = 20 g/ha, scored visually after 3 weeks vs untreated controls, 100% = plants have died, 0% = like control plants
[22] = 80 g/ha, scored visually after 3 weeks vs untreated controls (100% = plants have died, 0% = like control plants)

CCn1nnnc1NC(=O)c1ccc(S(C)(=O)=O)c(C(=O)NC2CC2)c1Cl [Example 2-125]
Pre-emergence action against MATIN in % (MATIN [1]; dosage 20 g/ha): 80% | Pre-emergence action against MATIN in % (MATIN [1]; dosage 80 g/ha): 100% | Pre-emergence action against VIOTR in % (VIOTR [2]; dosage 80 g/ha): 100% | Pre-emergence action against ABUTH (herbicidal activity) (ABUTH [3]): 100% | Post-emergence action against STEME in % (STEME [4]; 20 g/ha): 80% | Pre-emergence action against AVEFA in % (AVEFA [5]): 100% | Post-emergence action at 20 g/ha against AMARE in % (AMARE [6]): 80% | Post-emergence action against VIOTR in % (VIOTR [7]; 5 g/ha): 100% | Post-emergence action against VIOTR in % (VIOTR [7]; 20 g/ha): 100% | Pre-emergence action against AMARE in % (AMARE [8]; [21]): 80% | Pre-emergence action against AMARE in % (AMARE [8]; [22]): 100% | Pre-emergence action against STEME in % (STEME [9]; dosage 20 g/ha): 80% | Pre-emergence action against STEME in % (STEME [9]; dosage 80 g/ha): 100%

CNC(=O)c1c(C(F)(F)F)ccc(C(=O)Nc2nnco2)c1SC [Example 5-58]
Post-emergence action against SETVI in % (SETVI [10]; dosage 5 g/ha): 80% | Post-emergence action against SETVI in % (SETVI [10]; dosage 20 g/ha): 100% | Pre-emergence action against MATIN in % (MATIN [1]; dosage 20 g/ha): 90% | Pre-emergence action against MATIN in % (MATIN [1]; dosage 80 g/ha): 100% | Pre-emergence action against VERPE in % (VERPE [11]): 80% | Pre-emergence action against VIOTR in % (VIOTR [2]; dosage 20 g/ha): 90% | Pre-emergence action against VIOTR in % (VIOTR [2]; dosage 80 g/ha): 100% | Pre-emergence action against ABUTH (herbicidal activity) (ABUTH [3]): 100% | Pre-emergence action against ABUTH (herbicidal activity in percent) (ABUTH [3]): 90% | Post-emergence action against VERPE in % (VERPE [12]): 80% | Post-emergence action against STEME in % (STEME [4]; 20 g/ha): 90% | Post-emergence action against STEME in % (STEME [4]; dosage 5 g/ha): 90% | Pre-emergence action against ECHCG in % (ECHCG [13]): 90% | Pre-emergence action against AVEFA in % (AVEFA [5]): 80% | Pre-emergence action against SETVI in % (SETVI [14]): 100% | Post-emergence action against ABUTH in % (ABUTH [15]; dosage 5 g/ha): 90% | Post-emergence action against ABUTH in % (ABUTH [15]; dosage 20 g/ha): 90% | Post-emergence action against ALOMY in % (ALOMY): 80% | Post-emergence action at 20 g/ha against AMARE in % (AMARE [6]): 90% | Post-emergence action against DIGSA in % (DIGSA [16]): 90% | Post-emergence action against DIGSA (DIGSA [16]): 100% | Post-emergence action against PHBPU in % (PHBPU; dosage 5 g/ha): 80% | Post-emergence action against PHBPU in % (PHBPU; dosage 20 g/ha): 90% | Post-emergence action against VIOTR in % (VIOTR [7]; 5 g/ha): 80% | Post-emergence action against VIOTR in % (VIOTR [7]; 20 g/ha): 80% | Pre-emergence action against AMARE in % (AMARE [8]; [21]): 100% | Pre-emergence action against AMARE in % (AMARE [8]; [22]): 100% | Post-emergence action against MATIN in % (MATIN [17]): 80% | Pre-emergence action against DIGSA in % (DIGSA [18]; dosage 20 g/ha): 90% | Pre-emergence action against DIGSA in % (DIGSA [18]; dosage 80 g/ha): 100% | Pre-emergence action against STEME in % (STEME [9]; dosage 20 g/ha): 100% | Pre-emergence action against STEME in % (STEME [9]; dosage 80 g/ha): 100% | Post-emergence action against ECHCG in % (ECHCG [19]; dosage 5 g/ha): 80% | Post-emergence action against ECHCG in % (ECHCG [19]; dosage 20 g/ha): 90%

CCNC(=O)c1c(C(F)F)ccc(C(=O)Nc2nnco2)c1SC [Example 5-75]
Post-emergence action against SETVI in % (SETVI [10]; dosage 5 g/ha): 80% | Post-emergence action against SETVI in % (SETVI [10]; dosage 20 g/ha): 80% | Pre-emergence action against MATIN in % (MATIN [1]; dosage 20 g/ha): 80% | Pre-emergence action against MATIN in % (MATIN [1]; dosage 80 g/ha): 100% | Pre-emergence action against VERPE in % (VERPE [11]): 90% | Pre-emergence action against VIOTR in % (VIOTR [2]; dosage 20 g/ha): 100% | Pre-emergence action against VIOTR in % (VIOTR [2]; dosage 80 g/ha): 100% | Pre-emergence action against ABUTH (herbicidal activity) (ABUTH [3]): 100% | Pre-emergence action against ABUTH (herbicidal activity in percent) (ABUTH [3]): 100% | Post-emergence action at 20 g/ha against AVEFA in % (AVEFA [20]): 80% | Post-emergence action against STEME in % (STEME [4]; 20 g/ha): 100% | Post-emergence action against STEME in % (STEME [4]; dosage 5 g/ha): 90% | Pre-emergence action against ECHCG in % (ECHCG [13]): 100% | Pre-emergence action against SETVI in % (SETVI [14]): 100% | Post-emergence action against ABUTH in % (ABUTH [15]; dosage 5 g/ha): 90% | Post-emergence action against ABUTH in % (ABUTH [15]; dosage 20 g/ha): 90% | Post-emergence action against ALOMY in % (ALOMY): 80% | Post-emergence action at 20 g/ha against AMARE in % (AMARE [6]): 90% | Post-emergence action against DIGSA in % (DIGSA [16]): 90% | Post-emergence action against DIGSA (DIGSA [16]): 90% | Post-emergence action against PHBPU in % (PHBPU; dosage 5 g/ha): 80% | Post-emergence action against PHBPU in % (PHBPU; dosage 20 g/ha): 80% | Post-emergence action against VIOTR in % (VIOTR [7]; 20 g/ha): 80% | Pre-emergence action against AMARE in % (AMARE [8]; [21]): 100% | Pre-emergence action against AMARE in % (AMARE [8]; [22]): 100% | Post-emergence action against MATIN in % (MATIN [17]): 80% | Pre-emergence action against DIGSA in % (DIGSA [18]; dosage 20 g/ha): 100% | Pre-emergence action against DIGSA in % (DIGSA [18]; dosage 80 g/ha): 100% | Pre-emergence action against STEME in % (STEME [9]; dosage 20 g/ha): 100% | Pre-emergence action against STEME in % (STEME [9]; dosage 80 g/ha): 100% | Post-emergence action against ECHCG in % (ECHCG [19]; dosage 5 g/ha): 80% | Post-emergence action against ECHCG in % (ECHCG [19]; dosage 20 g/ha): 80%
